# Marks after values point to notes of the source that are not given here.
# Legend:
# Assay type in all cases: in vivo, Male Sprague-Dawley rats
# [1] = test system: Acetaminophen-Induced Liver Injury in Rat Model; assay: Orally administrated extract and compound on acetaminophen-induced liver injury in rat model; details: for increased activity of blood ALT induced by acetaminophen / increased activity of blood LDH induced by acetaminophen: once a day for 4 days; for central necrosis and inflammation of liver (histo-pathological examination): oral, acetaminophen-induced, FIG. 3
# Protocol: (§1) Male Sprague-Dawley rats (Samtako Co. Korea) weighing 140-160 g were used in the experiment and were allowed to access to feed (Harlan, teklan, USA) and drinking water. All animals were maintained in a controlled environment with temperatures at 22±2° C. and humidity at 55±5% with 12 hours of light and dark cycles for at least one week prior to use.
# 24 hours after the end of treatment, the acetaminophen solution prepared in Reference Example (1.2 g/kg) was orally administrated into the rats to induce hepatotoxicity.
# 24 hours after the treatment, the abdominal cavity was excised to deliver liver organ and blood to test the effect of the inventive extract and compound obtained in Examples on liver injury.
# The effect on the indicators of liver injury known in the art, i.e., ALT (R. Rej, Clin. Chem., 24, pp 1971-1979, 1978) and LDH (S. Sherlock et al., Blackwell Science, London, p 23, 2002) activity in rat blood was determined.
# The histo-pathological examination on liver organ was performed to determine the effect of inventive extract and compound on the necrosis and inflammation of liver induced by acetaminophen.
# [2] = test system: GSH-Depleted Liver Injury in Rat Model; assay: Effect on GSH-depleted (BSO) acetaminophen liver injury in rat model; details: for necrosis of hepatic cell: orally administrated
# Protocol: as §1
# 3 hours after the end of treatment, 2 mM/kg of BSO (buthionine sulfoximine) was intraperitoneally administrated to the rats to deplete GSH (glutathione) level of the rats. 1 hr after the treatment, the acetaminophen solution prepared in Reference Example (1.2 g/kg) was orally administrated into the rats to induce hepatotoxicity.
# 24 hours after the inducement, the survival rate of the rats was determined and the abdominal cavity was excised to deliver liver organ to test the effect of the inventive extract and compound obtained in Examples on liver injury.
# [3] = test system: Acetaminophen-Induced Liver Injury in Rat Model; assay: Intravenously administrated extract and compound on acetaminophen-induced liver injury in rat model
# Protocol: as §1
# 3 hours after the end of treatment, the acetaminophen solution prepared in Reference Example (1.2 g/kg) was orally administrated into the rats to induce hepatotoxicity.
# 24 hours after the inducement, the abdominal cavity was excised to deliver liver organ and blood to test the effect of the inventive extract and compound obtained in Examples on liver injury.
# [4] = test system: acetaminophen-induced hepatotoxicity in rats; assay: Treating effect on liver injury (dosing after acetaminophen); details: 50 mg/kg orally from 1 hour after acetaminophen, versus PEG400 (40%) negative control; FIG. 7
# Protocol: as §1
# The acetaminophen solution prepared in Reference Example (1.2 g/kg) was orally administrated into the rats to induce hepatotoxicity. […] All the testing rats had been starved for 24 hours prior to acetaminophen-administration.
# 24 hours after the inducement, the abdominal cavity was excised to deliver liver organ to test the effect of the inventive compound obtained in Examples on liver injury.
# [5] = oral dose of 50 mg/kg and 100 mg/kg
# [6] = GSH-depleted (BSO) + acetaminophen, FIG. 6b
# [7] = oral dose of 25 mg/kg and 50 mg/kg, FIG. 1
# [8] = intravenous dose of 5 mg/kg and 15 mg/kg, FIG. 4
compound,measurement,setting,value
"COC(=O)c1cc(OC)c2c(c1-c1c(C(=O)OC)cc(OC)c3c1OCO3)OCO2 [DDB, dimethyl-4,4′-dimethoxy-5,6,5′,6′-dimethylene dioxybiphenyl-2,2′-dicarboxylate]",Central vein neighboring cell necrosis (N),"[1]; APAP, 50 mg/kg, p.o, n = 10",2.38 ± 0.5^
same,Hepatic cell degeneration (HD) Central Vein (CV),"[1]; APAP, 50 mg/kg, p.o, n = 10",0.4 ± 0.2
same,Hepatic cell degeneration (HD) Limbic region,"[1]; APAP, 50 mg/kg, p.o, n = 10",0
same,Hepatic cell degeneration (HD) Middle Region,"[1]; APAP, 50 mg/kg, p.o, n = 10",0.2 ± 0.2
same,Inflammatory cell,"[1]; APAP, 50 mg/kg, p.o, n = 10",0^##
same,Survival ratio (%),"[1]; APAP, 50 mg/kg, p.o, n = 10",100%
same,increased activity of blood ALT induced by acetaminophen,[1]; [5],strikingly reduce
same,increased activity of blood LDH induced by acetaminophen,[1]; [5],strikingly reduce
same,central necrosis and inflammation of liver (histo-pathological examination),[1],reduced little
same,necrosis of hepatic cell,[2]; [6],could not reduce
"O=C1C[C@@H](c2ccc(O)cc2)Oc2cc(O)ccc21 [LQ, liquiritigenin]",Central vein neighboring cell necrosis (N),"[1]; APAP, 50 mg/kg, p.o, n = 10",0.8 ± 0.8
same,Hepatic cell degeneration (HD) Central Vein (CV),"[1]; APAP, 50 mg/kg, p.o, n = 10",0.8 ± 0.8
same,Hepatic cell degeneration (HD) Limbic region,"[1]; APAP, 50 mg/kg, p.o, n = 10",0.2 ± 0.2
same,Hepatic cell degeneration (HD) Middle Region,"[1]; APAP, 50 mg/kg, p.o, n = 10",0.6 ± 0.6
same,Inflammatory cell,"[1]; APAP, 50 mg/kg, p.o, n = 10",0^##
same,increased activity of blood ALT induced by acetaminophen,[1]; [7],significantly reduced
same,increased activity of blood LDH induced by acetaminophen,[1]; [7],significantly reduced
same,central necrosis and inflammation of liver (histo-pathological examination),[1],strikingly reduced
same,Central vein neighboring cell necrosis (N),"[3]; APAP, 5 mg/kg, i. v",0.2 ± 0.2
same,Hepatic cell degeneration (HD) Central Vein (CV),"[3]; APAP, 5 mg/kg, i. v",0.8 ± 0.4
same,Hepatic cell degeneration (HD) Limbic region,"[3]; APAP, 5 mg/kg, i. v",0
same,Hepatic cell degeneration (HD) Middle Region,"[3]; APAP, 5 mg/kg, i. v",0.6 ± 0.4
same,Inflammatory cell,"[3]; APAP, 5 mg/kg, i. v",0
same,increased activity of blood ALT induced by acetaminophen,[3]; [8],significantly reduced
same,increased activity of blood LDH induced by acetaminophen,[3]; [8],significantly reduced
same,central necrosis and inflammation of liver,"[3]; intravenously administrated, FIG. 5",strikingly reduced
same,Hepatic cell degeneration (HD) Central Vein (CV),"[2]; APAP + BSO, 15 mg/kg,i.v.",0.2 ± 0.2
same,Hepatic cell degeneration (HD) Limbic region,"[2]; APAP + BSO, 15 mg/kg,i.v.",2 ± 0.03
same,Hepatic cell degeneration (HD) Middle Region,"[2]; APAP + BSO, 15 mg/kg,i.v.",0.2 ± 0.2
same,Hepatic cell degeneration (HD) Central Vein (CV),"[2]; APAP + BSO, 50 mg/kg, p.o",1.5 ± 0.5
same,Hepatic cell degeneration (HD) Limbic region,"[2]; APAP + BSO, 50 mg/kg, p.o",1.5 ± 0.5
same,Hepatic cell degeneration (HD) Middle Region,"[2]; APAP + BSO, 50 mg/kg, p.o",1.5 ± 0.5
same,Inflammatory cell,"[2]; APAP + BSO, 50 mg/kg, p.o",0
same,survival rate,"[2]; GSH-depleted (BSO) + acetaminophen, versus 26.7% without treatment",strikingly increased
same,hepatic injury,"[2]; intravenously administrated for 2 days, GSH-depleted, FIG. 6b",apparently inhibits
same,necrosis of hepatic cell,[2]; [6],strikingly reduced
same,necrosis of hepatic cell,[4],more strikingly inhibited
